Laboratory results reported in patent US11396501B2, “Heteroaryl compounds as CXCR4 inhibitors, composition and method using the same” (CGENETECH (SUZHOU, CHINA) CO., LTD., priority 2017, dated 2022).

Target: CXCR4 (Homo sapiens, UniProt P61073)
Test: HPB-ALL CXCR4 competitive binding assay (12G5 binding assay)
Design: HPB-ALL cells were maintained in RPMI-1640 (Gibico) supplemented with 10% FBS (Hyclone); endogenous in cells; host or cells: HPB-ALL cells
Details: HPB-ALL cells; competition with APC-conjugated anti-human CXCR4 clone 12G5 at its EC80; 4° C. for 3 h; FACS
Protocol: HPB-ALL CXCR4 Competitive Binding Assay
HPB-ALL cells were maintained in RPMI-1640 (Gibico) supplemented with 10% FBS (Hyclone). APC-conjugated anti-human CXCR4 was from Sungene. EC80 was first determined for 12G5 binding to CXCR4. Then the compounds for testing were added into 96-well plates serially diluted at a ratio of 1:3. Cells were washed once with ice-cold assay buffer (DPBS+2% HI-FBS) and then re-suspended in the same buffer at a final concentration of 1×10^6/mL. Cell suspension was then added into the wells and with the addition of APC-conjugated anti-human CXCR4 clone 12G5 at its EC80 determined. The mix of cell, compounds and APC-conjugated anti-human CXCR4 were incubated at 4° C. for 3 h before addition of 100 μL of 4% PFA. Cells were then washed once and resuspended in assay buffer and examined by FACS. The percent (%) effect at each concentration of compound was calculated and relative to the amount of calcium produced in the positive and negative control wells contained within each assay plate. The concentrations and % effect values for tested compounds were plotted and the concentration of compound required for 50% effect (IC50) was determined. Tables 2 summarize results of the CXCR4 competitive binding assay for selected compounds disclosed in the present disclosure. FIGS. 1-2 depict the IC50 curves of compounds A42 and A43.

CXCR4, sequence (P61073 whole entry): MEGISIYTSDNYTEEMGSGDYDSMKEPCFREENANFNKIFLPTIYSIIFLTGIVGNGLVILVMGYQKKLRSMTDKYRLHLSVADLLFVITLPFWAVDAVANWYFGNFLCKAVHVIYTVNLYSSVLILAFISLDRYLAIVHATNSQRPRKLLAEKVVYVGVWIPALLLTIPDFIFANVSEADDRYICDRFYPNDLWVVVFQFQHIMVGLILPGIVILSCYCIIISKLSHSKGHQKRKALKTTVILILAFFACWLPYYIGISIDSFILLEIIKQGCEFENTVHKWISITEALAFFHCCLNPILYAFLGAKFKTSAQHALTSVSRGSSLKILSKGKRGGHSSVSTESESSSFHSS

Row | IC50 [nM] | Structure (SMILES)
1 | 228 | CN(C)CCN(C)c1cc(CN(C)C2CCCc3cccnc32)ncn1 (stereo not shown) [Compound A2]
2 | 19 | CSc1nc(CN(C)C2CCCc3cccnc32)cc(N2CCN(C)CC2)n1 (stereo not shown) [Compound A3]
3 | 229 | CC(c1ccccn1)N(C)Cc1cc(N2CCN(C)CC2)ncn1 (stereo not shown) [Compound A4]
4 | 113 | CN(Cc1cc(N2CCN(CCO)CC2)ncn1)C1CCCc2cccnc21 (stereo not shown) [Compound A5]
5 | 1140 | COCCN1CCN(c2cc(CN(C)C3CCCc4cccnc43)ncn2)CC1 (stereo not shown) [Compound A6]
6 | 393 | CN(Cc1cc(N2CCNCC2)ncn1)C1CCCc2cccnc21 (stereo not shown) [Compound A7, N-methyl-N-((6-(piperazin-1-yl)pyrimidin-4-yl)methyl)-5,6,7,8-tetrahydroquinolin-8-amine]
7 | 242 | CN(Cc1cc(N2CCN(CCC#N)CC2)ncn1)C1CCCc2cccnc21 (stereo not shown) [Compound A8, 3-(4-(6-((methyl(5,6,7,8-tetrahydroquinolin-8-yl)amino)methyl)pyrimidin-4-yl)piperazin-1-yl)propanenitrile]
8 | 14 | Cc1nc(CN(C)C2CCCc3cccnc32)cc(N2CCN(C)CC2)n1 (stereo not shown) [Compound A9, N-methyl-N-((2-methyl-6-(4-methylpiperazin-1-yl)pyrimidin-4-yl)methyl)-5,6,7,8-tetrahydroquinolin-8-amine]
9 | 23 | COc1nc(CN(C)C2CCCc3cccnc32)cc(N2CCN(C)CC2)n1 (stereo not shown) [Compound A10]
10 | 26 | CN1CCN(c2cc(CN(C)C3CCCc4cccnc43)nc(C3CC3)n2)CC1 (stereo not shown) [Compound A11]
11 | 8000 | CN1CCN(c2cc(CN(C)C3CCCc4cccnc43)nc(N(C)C)n2)CC1 (stereo not shown) [Compound A12]
12 | 8000 | CN1CCN(c2cc(CN(C)C3CCCc4cccnc43)nc(N3CCCC3)n2)CC1 (stereo not shown) [Compound A13]
13 | 2250 | CN1CCN(c2cc(CN(C)C3CCCc4cccnc43)nc(N3CCOCC3)n2)CC1 (stereo not shown) [Compound A14]
14 | 606 | CN1CCN(c2cc(CN(C)C3CCCc4cccnc43)nc(N(C)CCO)n2)CC1 (stereo not shown) [Compound A15]
15 | 17 | CN1CCN(c2cc(CN(C)C3CCCc4cccnc43)nc(N)n2)CC1 (stereo not shown) [Compound A16]
16 | 2690 | CN1CCN(c2cc(CN(C)C3CCCc4cccnc43)nc(-c3ccccc3)n2)CC1 (stereo not shown) [Compound A17]
17 | 43 | CNc1nc(CN(C)C2CCCc3cccnc32)cc(N2CCN(C)CC2)n1 (stereo not shown) [Compound A18]
18 | 67 | CCNc1nc(CN(C)C2CCCc3cccnc32)cc(N2CCN(C)CC2)n1 (stereo not shown) [Compound A19]
19 | 210 | CC(C)Nc1nc(CN(C)C2CCCc3cccnc32)cc(N2CCN(C)CC2)n1 (stereo not shown) [Compound A20]
20 | 790 | CN1CCN(c2cc(CN(C)C3CCCc4cccnc43)nc(-c3cnn(C)c3)n2)CC1 (stereo not shown) [Compound A21]
21 | 34 | CCN1CCN(c2cc(CN(C)C3CCCc4cccnc43)ncn2)CC1 (stereo not shown) [Compound A23]
22 | 42 | CC(C)N1CCN(c2cc(CN(C)C3CCCc4cccnc43)ncn2)CC1 (stereo not shown) [Compound A24]
23 | 100 | CN(C)C1CCN(c2cc(CN(C)C3CCCc4cccnc43)ncn2)CC1 (stereo not shown) [Compound A25]
24 | 41 | CN(Cc1cc(NCCN2CCOCC2)ncn1)C1CCCc2cccnc21 (stereo not shown) [Compound A26]

Row | IC50 [nM] | Structure (SMILES)
25 | 7.9 | CSc1nc(CN(C)C2CCCc3cccnc32)c(C)c(N2CCN(C)CC2)n1 (stereo not shown) [Compound A27]
26 | 21 | CCc1nc(CN(C)C2CCCc3cccnc32)cc(N2CCN(C)CC2)n1 (stereo not shown) [Compound A28]
27 | 78 | CC(C)c1nc(CN(C)C2CCCc3cccnc32)cc(N2CCN(C)CC2)n1 (stereo not shown) [Compound A29]
28 | 65 | CCOc1nc(CN(C)C2CCCc3cccnc32)cc(N2CCN(C)CC2)n1 (stereo not shown) [Compound A30]
29 | 77 | CC(C)Oc1nc(CN(C)C2CCCc3cccnc32)cc(N2CCN(C)CC2)n1 (stereo not shown) [Compound A31]
30 | 22 | CSc1nc([C@H](C)N(C)[C@H]2CCCc3cccnc32)cc(N2CCN(C)CC2)n1 [Compound A32]
31 | 268 | CSc1nc([C@H](C)N(C)[C@@H]2CCCc3cccnc32)cc(N2CCN(C)CC2)n1 [Compound A33]
32 | 47 | CSc1nc([C@@H](C)N(C)[C@H]2CCCc3cccnc32)cc(N2CCN(C)CC2)n1 [Compound A34]
33 | 106 | CSc1nc([C@@H](C)N(C)[C@@H]2CCCc3cccnc32)cc(N2CCN(C)CC2)n1 [Compound A35]
34 | 5730 | CSc1nc(CN(C)C(CCCCNC(=O)OC(C)(C)C)c2ccccn2)cc(N2CCN(C)CC2)n1 (stereo not shown) [Compound A36]
35 | 4430 | Cc1nc(CN(C)C(CCCNC(=O)OC(C)(C)C)c2ccccn2)cc(N2CCN(C)CC2)n1 (stereo not shown) [Compound A37]
36 | 6940 | Cc1nc(CN(C)C(CCCN)c2ccccn2)cc(N2CCN(C)CC2)n1 (stereo not shown) [Compound A38]
37 | 94 | CN(C)C1CCN(c2cc(CN(C)C3CCCc4cccnc43)ncn2)C1 (stereo not shown) [Compound A39]
38 | 110 | CSc1nc(CN(C)C2c3ncccc3CCC23CC3)cc(N2CCN(C)CC2)n1 (stereo not shown) [Compound A40]
39 | 97 | Cc1nc(CN(C)C2c3ncccc3CCC23CC3)cc(N2CCN(C)CC2)n1 (stereo not shown) [Compound A41]
40 | 11 | CCN1CCN(c2cc(CN(C)[C@H]3CCCc4cccnc43)nc(C)n2)CC1 [Compound A43]
41 | 296 | CCN(Cc1cc(N2CCN(C)CC2)nc(C)n1)C1c2ncccc2CCC12CC2 (stereo not shown) [Compound A44]
42 | 886 | CCN1CCN(c2cc(CN(C)C3c4ncccc4CCC34CC4)nc(C)n2)CC1 (stereo not shown) [Compound A45]
43 | 161 | Cc1nc(CN(C)C2CC3(CC3)Cc3cccnc32)cc(N2CCN(C)CC2)n1 (stereo not shown) [Compound A46]
44 | 58 | Cc1nc(CN(C)[C@H]2CCCc3cccnc32)cc(N2CCN(C3CC3)CC2)n1 [Compound A47]
45 | 240 | CN1CCN(c2cc(CN(C)[C@H]3CCCc4cccnc43)nc(C(F)(F)F)n2)CC1 [Compound A48]
46 | 123 | Cc1nc(CN(C)[C@H]2CCCc3cccnc32)cc(N2CCN(C3COC3)CC2)n1 [Compound A49]
47 | 211 | CN1CCN(c2ccnc(CN(C)C3CCCc4cccnc43)n2)CC1 (stereo not shown) [Compound A50, N-methyl-N-((4-(4-methylpiperazin-1-yl)pyrimidin-2-yl)methyl)-5,6,7,8-tetrahydroquinolin-8-amine]
48 | 16 | Cc1nc(CN(C)C2CCCc3cccnc32)c(F)c(N2CCN(C)CC2)n1 (stereo not shown) [Compound A51]

Row | IC50 [nM] | Structure (SMILES)
49 | 27 | Cc1nc(CN(C)C(C)c2ccccn2)cc(N2CCN(C)CC2)n1 (stereo not shown) [Compound A52]
50 | 33 | Cc1nc(CN(C)C(C)c2ncccc2C)cc(N2CCN(C)CC2)n1 (stereo not shown) [Compound A53]
51 | 356 | Cc1ccnc(C(C)N(C)Cc2cc(N3CCN(C)CC3)nc(C)n2)c1 (stereo not shown) [Compound A54]
52 | 44 | Cc1ccc(C(C)N(C)Cc2cc(N3CCN(C)CC3)nc(C)n2)nc1 (stereo not shown) [Compound A55]
53 | 131 | Cc1cccc(C(C)N(C)Cc2cc(N3CCN(C)CC3)nc(C)n2)n1 (stereo not shown) [Compound A56]
54 | 21 | CCN(Cc1cc(N2CCN(C)CC2)nc(C)n1)C1CCCc2cccnc21 (stereo not shown) [Compound A57]
55 | 19 | CCN(Cc1cc(N2CCN(C)CC2)nc(C)n1)[C@H]1CCCc2cccnc21 [Compound A58]
56 | 63 | Cc1nc(CN(CC2CC2)C2CCCc3cccnc32)cc(N2CCN(C)CC2)n1 (stereo not shown) [Compound A59]
57 | 464 | CN(Cc1cc(N2CCN(CC3CC3)CC2)ncn1)C1CCCc2cccnc21 (stereo not shown) [Compound A60]
58 | 2290 | Cc1nc(CN(C)C(C)(C)c2ccccn2)cc(N2CCN(C)CC2)n1 [Compound A62]
59 | 29 | Cc1nc(CN(C)[C@H]2CCCc3cccnc32)cc(N2CCN(C)C[C@H]2C)n1 [Compound A63, (S)-N-((6-((R)-2,4-dimethylpiperazin-1-yl)-2-methylpyrimidin-4-yl)methyl)-N-methyl-5,6,7,8-tetrahydroquinolin-8-amine]
60 | 21 | Cc1nc(CN(C)[C@H]2CCCc3cccnc32)cc(N2CCN(C)C[C@@H]2C)n1 [Compound A64]
61 | 13 | Cc1nc(CN(C)[C@H]2CCCc3cccnc32)cc(N2CCN(C)[C@H](C)C2)n1 [Compound A65]
62 | 20 | Cc1nc(CN(C)[C@H]2CCCc3cccnc32)cc(N2CCN(C)[C@@H](C)C2)n1 [Compound A66]
63 | 12 | Cc1nc(CN(C)[C@H]2CCCc3cccnc32)cc(N2C[C@@H](C)N(C)[C@@H](C)C2)n1 [Compound A67]
64 | 46 | Cc1nc(CN(C)[C@H]2CCCc3cccnc32)cc(N2CCN3CCC[C@@H]3C2)n1 [Compound A68]
65 | 27 | Cc1nc(CN(C)[C@H]2CCCc3cccnc32)cc(N2CCN3CCC[C@H]3C2)n1 [Compound A69]
66 | 54 | Cc1nc(CN(C)[C@H]2CCCc3cccnc32)cc(NCCCN2CCOCC2)n1 [Compound A70]
67 | 90 | Cc1nc(CN(C)[C@H]2CCCc3cccnc32)cc(NCCN2CCOCC2)n1 [Compound A71]
68 | 146 | Cc1nc(CN(C)[C@H]2CCCc3cccnc32)cc(N2CCC(N3CCOCC3)CC2)n1 [Compound A72]
69 | 32 | Cc1nc(CN(C)[C@H]2CCCc3cccnc32)cc(N2CCN(C)CC2CO)n1 (stereo partly shown) [Compound A73]
70 | 100 | Cc1nc(CN(C)[C@H]2CCCc3cccnc32)cc(N2CCC(N3CCN(C)CC3)CC2)n1 [Compound A74]
